Data reported in the NIST ThermoML archive (doi:10.1016/j.jct.2019.02.011).

Test: xn = mol fraction of the nth substance listed
Conditions: Liquid, Vibrating tube method

COC(=O)OC [dimethyl carbonate] + CO
mass density [kg/m3]
Conditions | 100 kPa | 5000 kPa | 10000 kPa | 15000 kPa | 20000 kPa | 25000 kPa | 30000 kPa | 35000 kPa | 40000 kPa
298.15 K, x1 = 0.0253 | – | – | – | – | – | 822.44 | 826.09 | 829.61 | 832.77
298.15 K, x1 = 0.0503 | – | – | – | – | – | 836.02 | 839.68 | 843.21 | 846.39
298.15 K, x1 = 0.0745 | – | – | – | – | – | 848.53 | 852.21 | 855.74 | 858.95
298.15 K, x1 = 0.101 | – | – | – | – | – | 861.5 | 865.23 | 868.78 | 872.01
298.15 K, x1 = 0.1502 | – | – | – | – | – | 883.85 | 887.6 | 891.17 | 894.43
298.15 K, x1 = 0.2059 | – | – | – | – | – | 906.93 | 910.69 | 914.23 | 917.53
298.15 K, x1 = 0.25 | – | – | – | – | – | 923.6 | 927.38 | 930.92 | 934.25
298.15 K, x1 = 0.3004 | – | – | – | – | – | 941.13 | 944.97 | 948.53 | 951.89
298.15 K, x1 = 0.3426 | – | – | – | – | – | 954.69 | 958.54 | 962.11 | 965.49
298.15 K, x1 = 0.3984 | – | – | – | – | – | 971.23 | 975.08 | 978.67 | 982.08
298.15 K, x1 = 0.4514 | – | – | – | – | – | 985.66 | 989.52 | 993.12 | 996.55
298.15 K, x1 = 0.5054 | – | – | – | – | – | 999.17 | 1003.04 | 1006.64 | 1010.1
298.15 K, x1 = 0.5509 | – | – | – | – | 1005.74 | 1009.72 | 1013.59 | 1017.21 | 1020.68
298.15 K, x1 = 0.6002 | – | – | – | – | 1016.28 | 1020.27 | 1024.16 | 1027.78 | 1031.27
298.15 K, x1 = 0.6469 | – | – | – | – | 1025.6 | 1029.6 | 1033.49 | 1037.12 | 1040.63
298.15 K, x1 = 0.6993 | – | – | – | – | 1035.37 | 1039.38 | 1043.27 | 1046.86 | 1050.38
298.15 K, x1 = 0.7496 | – | – | – | – | 1044.11 | 1048.12 | 1052.02 | 1055.62 | 1059.15
298.15 K, x1 = 0.799 | – | – | – | – | 1052.15 | 1056.12 | 1060.03 | 1063.63 | 1067.18
298.15 K, x1 = 0.837 | – | – | – | – | 1058.02 | 1061.99 | 1065.9 | 1069.51 | 1073.07
298.15 K, x1 = 0.9093 | – | – | – | – | 1068.61 | 1072.59 | 1076.46 | 1080.07 | 1083.65
298.15 K, x1 = 0.9239 | – | – | – | – | 1070.65 | 1074.63 | 1078.5 | 1082.11 | 1085.7
298.15 K, x1 = 0.9575 | – | – | – | – | 1075.22 | 1079.21 | 1083.09 | 1086.7 | 1090.29
298.15 K, x1 = 0.9861 | – | – | – | – | 1079.06 | 1083.05 | 1086.92 | 1090.54 | 1094.14
298.15 K, x1 = 1 | – | – | – | – | 1080.9 | 1084.89 | 1088.82 | 1092.44 | 1096.04
303.15 K, x1 = 0.0253 | 796.3 | 801.03 | 805.57 | 810.1 | 814.43 | 818.36 | 822.05 | – | –
303.15 K, x1 = 0.0503 | 809.73 | 814.5 | 819.05 | 823.59 | 827.93 | 831.86 | 835.56 | – | –
303.15 K, x1 = 0.0745 | 822.09 | 826.87 | 831.44 | 835.97 | 840.32 | 844.26 | 848.02 | – | –
303.15 K, x1 = 0.101 | 834.96 | 839.75 | 844.32 | 848.86 | 853.22 | 857.21 | 860.97 | – | –
303.15 K, x1 = 0.1502 | 857.02 | 861.81 | 866.4 | 870.99 | 875.37 | 879.38 | 883.14 | – | –
303.15 K, x1 = 0.2059 | 879.85 | 884.65 | 889.26 | 893.85 | 898.26 | 902.32 | 906.14 | – | –
303.15 K, x1 = 0.25 | 896.36 | 901.21 | 905.83 | 910.43 | 914.79 | 918.87 | 922.69 | – | –
303.15 K, x1 = 0.3004 | 913.71 | 918.57 | 923.21 | 927.81 | 932.19 | 936.27 | 940.09 | – | –
303.15 K, x1 = 0.3426 | 927.12 | 931.98 | 936.63 | 941.23 | 945.62 | 949.71 | 953.54 | – | –
303.15 K, x1 = 0.3984 | 943.53 | 948.4 | 953.06 | 957.62 | 962.02 | 966.12 | 969.95 | – | –
303.15 K, x1 = 0.4514 | 957.9 | 962.78 | 967.4 | 971.96 | 976.32 | 980.43 | 984.26 | – | –
303.15 K, x1 = 0.5054 | 971.35 | 976.23 | 980.81 | 985.37 | 989.75 | 993.91 | 997.75 | – | –
303.15 K, x1 = 0.5509 | 981.85 | 986.74 | 991.33 | 995.89 | 1000.23 | 1004.39 | 1008.28 | – | –
303.15 K, x1 = 0.6002 | 992.37 | 997.25 | 1001.85 | 1006.41 | 1010.76 | 1014.93 | 1018.82 | – | –
303.15 K, x1 = 0.6469 | 1001.6 | 1006.49 | 1011.1 | 1015.61 | 1019.97 | 1024.14 | 1028.04 | – | –
303.15 K, x1 = 0.6993 | 1011.29 | 1016.13 | 1020.75 | 1025.26 | 1029.62 | 1033.8 | 1037.7 | – | –
303.15 K, x1 = 0.7496 | 1019.99 | 1024.84 | 1029.41 | 1033.93 | 1038.25 | 1042.43 | 1046.33 | – | –
303.15 K, x1 = 0.799 | 1028.01 | 1032.86 | 1037.44 | 1041.96 | 1046.28 | 1050.47 | 1054.37 | – | –
303.15 K, x1 = 0.837 | 1033.85 | 1038.71 | 1043.24 | 1047.76 | 1052.09 | 1056.23 | – | – | –
303.15 K, x1 = 0.9093 | 1044.36 | 1049.21 | 1053.76 | 1058.22 | 1062.51 | 1066.71 | – | – | –
303.15 K, x1 = 0.9239 | 1046.39 | 1051.25 | 1055.79 | 1060.26 | 1064.55 | 1068.75 | – | – | –
303.15 K, x1 = 0.9575 | 1050.95 | 1055.81 | 1060.36 | 1064.83 | 1069.12 | 1073.32 | – | – | –
303.15 K, x1 = 0.9861 | 1054.77 | 1059.63 | 1064.18 | 1068.65 | 1072.95 | 1077.15 | – | – | –
303.15 K, x1 = 1 | 1056.61 | 1061.47 | 1066.02 | 1070.49 | 1074.79 | 1078.99 | – | – | –
